Measured values from US20080254993A1, “Use of abscisic acid analogs to enhance growth control” (priority 2007, published 2008).

How the values were obtained:
Kentucky bluegrass = assay: Greenhouse study on Kentucky bluegrass: turfgrass height, clip weight, turfgrass quality (Example 1); type: in vivo
Procedure: Greenhouse studies were conducted at the Research Farm of Valent BioSciences Corporation (Long Grove, Ill.). Grasses were grown in pots (18 cm in diameter and 18 cm in height) filled with Promix BX (available from Premier Horticulture Inc. Quakertown, Pa.). Grass was irrigated daily by an overhead irrigation system. The irrigation system was set up with multiple Tornado Mist Spray Heads (10 GPH at 40 PSI-Wetted diameter, NDS/Raindrip, Woodland Hills, Calif.). Spray heads were 1-meter apart from each other and 75 cm above grass canopy. Grass was cut with a scissor at 2.5 cm height and fertilizer (1 g/L all purpose fertilizer 20-20-20, available from The Scotts Company, Marysville, Ohio) was applied once per week.
Chemical solutions were prepared with distilled water. Tween 20 (0.05% v/v) was used as the surfactant when necessary. Trinexapac-ethyl (commercial product Primo Maxx, 11.3% active ingredient) was purchased from Syngenta Crop Protection Inc. (Greensboro, N.C.). ABA analogs, 8′ acetylene-ABA, acid (PBI-524), 8′ acetylene-ABA, ester (PBI-429), 8′ cyclopropane ester (PBI-696), or Tetralone, first carbon tail acetylene, ester (PBI-702), were obtained from Plant Biotechnology Institute, National Research Council of Canada (Saskatoon, Saskatchewan, Canada).
Chemical solutions were foliar applied to the turfgrass canopy at the rate of 4-gallons/1000 square foot (or 0.163 L/m^−2) immediately after finishing the preparation of solutions. After treatment, turfgrasses were arranged in a randomized complete block experimental design. Turfgrass quality, turfgrass height or clip fresh weight was measured on assigned dates. Turfgrass quality was visually rated on a 0-9 scale based on the color, uniformity, and density of the grass with 0 as the worst and 9 as the best. Turfgrass height was measured as the distance between canopy surface and soil. Clippings were collected form each plot; all plots were cut to a uniform height.
All experiments were randomized complete block experimental design. Data were analyzed by analysis of variance. Duncan's new multiple range tests at α=0.05 were used for mean separations.
Kentucky bluegrass sod was purchased from Deak sod farms, Inc. (Union Grove, Wis.). Grass was grown in the greenhouse for 94 days for establishment. Turfgrass was treated with one time foliar application of 50 ppm PBI-524, PBI-429, PBI-696 or PBI-702 alone or in combination with 250 ppm trinexapac-ethyl. The turfgrass was cut every 7 days. Turfgrass quality, turfgrass height, and clip weight were measured on days 7 and 35 after treatment.

tomato [1] = assay: Tomato leaf transpiration, greenhouse, porometer (Example 5); type: in vivo, Tomato (variety: Rutgers)
Description: (§1) The effect of ABA analog (PBI-429) and trinexapac-ethyl combinations on transpiration and growth inhibition of dicotyledonous (tomato) was also examined in the greenhouse condition. Tomato (variety: Rutgers) seeds were sown in 18-cell flat filled with Promix PGX (available from Premier Horticulture Inc. Quakertown, Pa.) and grown for 3 weeks to allow for germination and initial growth. Plants were then transplanted into pots (18 cm in diameter and 18 cm in height), filled with Promix BX (available from Premier Horticulture Inc. Quakertown, Pa.), and grown for one week before the chemical treatment. Plants received daily irrigation and weekly fertilizer (1 g/L all purpose fertilizer 20-20-20, available from The Scotts Company, Marysville, Ohio). During the chemical treatment, a 24 mL (4 mL/plant) solution was foliar sprayed on the tomato canopy. Leaf transpiration rates were measured using a LI-1600 Steady State Porometer (LI-Cor, Lincoln, Nebr.) at 3, 5, 7, 10, and 14 days after treatment. The leaf transpiration rate was normalized to the percentage of control plant to minimize the experimental errors caused by environmental factors. Plant height was measured at 0, 3, 5, 7, 10 and 14 days after treatment. The growth rate was calculated based on the changes of plant height in certain intervals. The plants were harvested and the leaf number was counted at 14 days after treatment.

tomato [2] = assay: Tomato plant height, growth rate and leaf number, greenhouse (Example 5); type: in vivo, Tomato (variety: Rutgers)
Description: as §1

[3] = 7 days after treatment, 250 ppm trinexapac-ethyl alone
[4] = 35 days after treatment, 250 ppm trinexapac-ethyl alone
[5] = 250 ppm trinexapac-ethyl, 3 days after treatment
[6] = 250 ppm trinexapac-ethyl, 5 days after treatment
[7] = 250 ppm trinexapac-ethyl, 7 days after treatment
[8] = 250 ppm trinexapac-ethyl, 10 days after treatment
[9] = 250 ppm trinexapac-ethyl, 14 days after treatment
[10] = 500 ppm trinexapac-ethyl, 3 days after treatment
[11] = 500 ppm trinexapac-ethyl, 5 days after treatment
[12] = 500 ppm trinexapac-ethyl, 7 days after treatment
[13] = 500 ppm trinexapac-ethyl, 10 days after treatment
[14] = 500 ppm trinexapac-ethyl, 14 days after treatment
[15] = 1000 ppm trinexapac-ethyl, 3 days after treatment
[16] = 1000 ppm trinexapac-ethyl, 5 days after treatment
[17] = 1000 ppm trinexapac-ethyl, 7 days after treatment
[18] = 1000 ppm trinexapac-ethyl, 10 days after treatment
[19] = 1000 ppm trinexapac-ethyl, 14 days after treatment
[20] = 2000 ppm trinexapac-ethyl, 3 days after treatment
[21] = 2000 ppm trinexapac-ethyl, 5 days after treatment
[22] = 2000 ppm trinexapac-ethyl, 7 days after treatment
[23] = 2000 ppm trinexapac-ethyl, 10 days after treatment
[24] = 2000 ppm trinexapac-ethyl, 14 days after treatment
[25] = PBI-429 25-200 ppm, trinexapac-ethyl 250-2000 ppm, alone or combined

CCOC(=O)C1CC(=O)C(=C(O)C2CC2)C(=O)C1 (stereo not drawn) [trinexapac-ethyl, reference compound]
Clip Weight (Kentucky bluegrass; [3]): 0.5 g
Turfgrass height (Kentucky bluegrass; [3]): 6.0 cm
Turfgrass quality (Kentucky bluegrass; 7 days after treatment, 250 ppm trinexapac-ethyl alone, visual 0-9 scale, 9 best): 6.6
Turfgrass height and clip weight compared to the control (in words) (Kentucky bluegrass; 7 days after treatment, trinexapac-ethyl 250 ppm, PBI-524 or PBI-429 50 ppm, alone or combined): reduced turfgrass height and clip weight compared to the control
Clip Weight (Kentucky bluegrass; [4]): 1.7 g
Turfgrass height (Kentucky bluegrass; [4]): 7.2 cm
Transpiration (tomato [1]; [5]): 95 % of control
Transpiration (tomato [1]; [6]): 95 % of control
Transpiration (tomato [1]; [7]): 94 % of control
Transpiration (tomato [1]; [8]): 94 % of control
Transpiration (tomato [1]; [9]): 100 % of control
Transpiration (tomato [1]; [10]): 94 % of control
Transpiration (tomato [1]; [11]): 101 % of control
Transpiration (tomato [1]; [12]): 94 % of control
Transpiration (tomato [1]; [13]): 97 % of control
Transpiration (tomato [1]; [14]): 97 % of control
Transpiration (tomato [1]; [15]): 100 % of control
Transpiration (tomato [1]; [16]): 95 % of control
Transpiration (tomato [1]; [17]): 94 % of control
Transpiration (tomato [1]; [18]): 101 % of control
Transpiration (tomato [1]; [19]): 100 % of control
Transpiration (tomato [1]; [20]): 94 % of control
Transpiration (tomato [1]; [21]): 96 % of control
Transpiration (tomato [1]; [22]): 93 % of control
Transpiration (tomato [1]; [23]): 91 % of control
Transpiration (tomato [1]; [24]): 96 % of control
Tomato leaf transpiration (in words) (tomato [1]; PBI-429 25-200 ppm, trinexapac-ethyl 250-2000 ppm, alone or combined, 3-14 days after treatment): did not significantly inhibited tomato leaf transpiration
Plant height (tomato [2]; 250 ppm trinexapac-ethyl, 0 days after treatment): 6.4 cm
Growth rate (tomato [2]; [5]): 1.2 cm/day
Plant height (tomato [2]; [5]): 9.9 cm
Growth rate (tomato [2]; [6]): 1.0 cm/day
Plant height (tomato [2]; [6]): 11.9 cm
Growth rate (tomato [2]; [7]): 1.6 cm/day
Plant height (tomato [2]; [7]): 15.1 cm
Growth rate (tomato [2]; [8]): 1.5 cm/day
Plant height (tomato [2]; [8]): 19.6 cm
Growth rate (tomato [2]; [9]): 1.8 cm/day
Leaf number (tomato [2]; [9]): 11.0
Plant height (tomato [2]; [9]): 26.9 cm
Plant height (tomato [2]; 500 ppm trinexapac-ethyl, 0 days after treatment): 6.5 cm
Growth rate (tomato [2]; [10]): 0.9 cm/day
Plant height (tomato [2]; [10]): 9.3 cm
Growth rate (tomato [2]; [11]): 0.8 cm/day
Plant height (tomato [2]; [11]): 10.9 cm
Growth rate (tomato [2]; [12]): 1.2 cm/day
Plant height (tomato [2]; [12]): 13.3 cm
Growth rate (tomato [2]; [13]): 1.4 cm/day
Plant height (tomato [2]; [13]): 17.4 cm
Growth rate (tomato [2]; [14]): 1.8 cm/day
Leaf number (tomato [2]; [14]): 11.0
Plant height (tomato [2]; [14]): 24.4 cm
Plant height (tomato [2]; 1000 ppm trinexapac-ethyl, 0 days after treatment): 6.5 cm
Growth rate (tomato [2]; [15]): 0.7 cm/day
Plant height (tomato [2]; [15]): 8.9 cm
Growth rate (tomato [2]; [16]): 0.7 cm/day
Plant height (tomato [2]; [16]): 10.3 cm
Growth rate (tomato [2]; [17]): 1.0 cm/day
Plant height (tomato [2]; [17]): 12.3 cm
Growth rate (tomato [2]; [18]): 1.2 cm/day
Plant height (tomato [2]; [18]): 15.8 cm
Growth rate (tomato [2]; [19]): 1.8 cm/day
Leaf number (tomato [2]; [19]): 11.0
Plant height (tomato [2]; [19]): 22.8 cm
Plant height (tomato [2]; 2000 ppm trinexapac-ethyl, 0 days after treatment): 6.7 cm
Growth rate (tomato [2]; [20]): 0.6 cm/day
Plant height (tomato [2]; [20]): 7.9 cm
Growth rate (tomato [2]; [21]): 0.6 cm/day
Plant height (tomato [2]; [21]): 9.1 cm
Growth rate (tomato [2]; [22]): 0.8 cm/day
Plant height (tomato [2]; [22]): 10.7 cm
Growth rate (tomato [2]; [23]): 1.0 cm/day
Plant height (tomato [2]; [23]): 13.6 cm
Growth rate (tomato [2]; [24]): 1.2 cm/day
Leaf number (tomato [2]; [24]): 10.8
Plant height (tomato [2]; [24]): 18.3 cm
Tomato leaf number (in words) (tomato [2]; 14 days after treatment, PBI-429 25-200 ppm, trinexapac-ethyl 250-2000 ppm, alone or combined): did not change the tomato leaf number
Tomato growth rate in terms of plant height (in words) (tomato [2]; [25]): inhibited growth rate
Tomato plant height (in words) (tomato [2]; [25]): decreased tomato plant height
